Data published in patent US7718679B2, “Heteroaryl carboxamides” (Hoffman-La Roche Inc., priority 2006, dated 2010).

Molecular target: T1, human factor Xa (Homo sapiens, UniProt P00742)
T1 construct: Factor Xa is a serine endopeptidase composed of two disulfide-linked subunits; purchased Enzyme Research Laboratories
Experiment: Factor Xa chromogenic peptide substrate (S-2222) assay
Assay type: biochemical
Settings: apparent Ki by Cheng-Prusoff from IC50; human factor Xa 3 nM, substrate S-2222, pH 7.8, room temperature
Protocol: Factor Xa activity was measured spectrophotometrically in microtiter plates in a final volume of 150 μl using the following conditions: Inhibition of human factor Xa (Enzyme Research Laboratories) was tested at an enzyme concentration of 3 nM using the chromogenic substrate S-2222 (Chromogenix AB, Mölndal, Sweden) at 200 nM. The reaction kinetics of the enzyme and the substrate were linear with both time and the enzyme concentration. The inhibitors were dissolved in DMSO and tested at various concentrations up to 100 μM. The inhibitors were diluted using HNPT buffer consisting of HEPES 100 mMM, NaCl 140 mM, PEG 6000 0.1% and Tween 80 0.02%, pH 7.8. […] The velocity of the reaction was determined by the autoreader from the slope of the linear regression fit to 7 time points (1 minute). The initial velocity for each inhibitor concentration was determined by the slope of at least 4 time points in the linear phase by a linear regression fit (mOD/min^2). Apparent dissociation constants Ki were calculated according to Cheng and Prusoff [Cheng, Y. C.; Prusoff, W. H. Relationship between the inhibition constant (Ki) and the concentration of the inhibitor that causes 50 percent inhibition (IC50) of an enzyme reaction. Biochem. Pharmacol. 1973, 22, 3099-3108.] based on the IC50 and the respective Km, determined previously (Ki=IC50/(1+S/Km)). […]

T1 sequence (P00742 235-488 limits assumed): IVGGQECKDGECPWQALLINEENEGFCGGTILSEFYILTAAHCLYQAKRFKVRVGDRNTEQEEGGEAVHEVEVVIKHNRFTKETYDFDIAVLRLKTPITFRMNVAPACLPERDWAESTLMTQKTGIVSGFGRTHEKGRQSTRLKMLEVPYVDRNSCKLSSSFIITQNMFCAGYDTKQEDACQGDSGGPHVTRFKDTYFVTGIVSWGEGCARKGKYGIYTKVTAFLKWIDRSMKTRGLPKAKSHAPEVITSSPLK
T1 sequence (P00742 41-179 partner limits assumed): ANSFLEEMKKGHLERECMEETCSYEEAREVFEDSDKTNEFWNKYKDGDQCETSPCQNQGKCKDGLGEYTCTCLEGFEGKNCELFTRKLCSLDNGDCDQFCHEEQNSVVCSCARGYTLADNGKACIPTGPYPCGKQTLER

Row | SMILES | Ki
1 | O=C(Nc1ccc(N2CCOCC2=O)cc1)c1nc(CNC(=O)c2ccc(Cl)s2)no1 [Example 5, 3-{[(5-chloro-thiophene-2-carbonyl)-amino]-methyl}-[1,2,4]oxadiazole-5-carboxylic acid [4-(3-oxo-morpholin-4-yl)-phenyl]-amide] | 0.016 µM
2 | O=C(Nc1ccc(-n2ccncc2=O)cc1F)c1nc(CNC(=O)c2ccc(Cl)s2)no1 [Example 3, 3-{[(5-chloro-thiophene-2-carbonyl)-amino]-methyl}-[1,2,4]oxadiazole-5-carboxylic acid [2-fluoro-4-(2-oxo-2H-pyrazine-1-yl)-phenyl]-amide] | 0.007 µM
